# Assay results: ChEMBL document CHEMBL1132191, “Prediction of the binding free energies of new TIBO-like HIV-1 reverse transcriptase inhibitors using a combination of PROFEC, PB/SA, CMC/MD, and free energy calculations” (J Med Chem, 1999)
# Biological target: Human immunodeficiency virus type 1 reverse transcriptase (Human immunodeficiency virus 1, UniProt Q72547)
# Assay: Effective concentration against HIV-1 reverse transcriptase
# Assay type: functional
row,SMILES,EC50
1,C=CCN1Cc2c(C)ccc3[nH]c(=S)n(c23)C[C@@H]1C,14 nM
2,C=CCN1[C@H](C)c2cccc3[nH]c(=S)n(c23)C[C@@H]1C,790 nM
3,CC(C)=CCN1Cc2c(Cl)ccc3[nH]c(=S)n(c23)C[C@@H]1C [TIVIRAPINE],5.1 nM
4,C=CCN1[C@@H](C)Cn2c(=S)[nH]c3cccc(c32)[C@@H]1C,39 nM
5,C=CCN1Cc2c(Cl)ccc3[nH]c(=S)n(c23)C[C@@H]1C,4.6 nM

# The next lines start with the values.
row,EC50,SMILES
1,4200 nM,C=CCN1Cc2cccc3[nH]c(=O)n(c23)C[C@@H]1C
2,33 nM,CC(C)=CCN1Cc2cc(Cl)cc3[nH]c(=S)n(c23)C[C@@H]1C
3,44 nM,CC(C)=CCN1Cc2cccc3[nH]c(=S)n(c23)C[C@@H]1C
